Reference: patent US8658605B2, “Bioactivity composition of Reevesia formosana” (priority 2011, dated 2014)

What was measured:
[1] = test system: MCF-7 (human breast adenocarcinoma); assay: MTS reduction assay, cytotoxicity on MCF-7 cells; type: cell-based; conditions: average of three repeats
Protocol: (§1) MCF-7 (human breast adenocarcinoma), NCI-H460 (non-small-cell lung cancer) and HepG2 (liver hepatocellular cells) were incubated in a modified Dulbecco's Eagle's medium with 10% FBS and nonessential amino acid ([…], Inc) in an incubator with 37° C., 5% CO2/Air. Human cancer cell lines were planted in 96-well plates, and each well which contained the 100 μl medium were planted one of MCF-7 and NCI-H460 with a cell amount of 6500, 2500 and 7500. After overnight incubation, each cell line was administered at least 8 testing compounds with different concentrations individually, and subsequently the cell lines were incubated in the incubator for 72 hours. According to a method of MTS reduction assay, 5-(3-carboxymethoxyphenyl)-2-(4,5-dimethylthiazoyl)-3-(4-sulfophenyl)tetrazolium salt (MTS) was applied on estimating alive cell numbers, and 0.1% DMSO (Promega, Madison, Wis., USA) was a control group because DMSO controlled a result of percentage, the result could be a dose-response curve of IC50 value. […] The IC50 value was an average of three times repeats. The 10000/well HepG2 cells were planted on a 96-well plate and were gone through the same experiences.

[2] = test system: NCI-H460 (non-small-cell lung cancer); assay: MTS reduction assay, cytotoxicity on NCI-H460 cells; type: cell-based, human; conditions: NCI-H460, 72 hours, average of three repeats
Protocol: as §1

[3] = test system: HepG2 (liver hepatocellular cells); assay: MTS reduction assay, cytotoxicity on HepG2 cells; type: cell-based, human; conditions: HepG2, 72 hours, average of three repeats
Protocol: as §1

Compound | IC50 ([1]; MCF-7, 72 hours) [nM] | IC50 [2] [nM] | IC50 [3] [nM] | IC50 ([1]; Homo sapiens, MCF7, MCF-7, 72 hours) [nM] | IC50 ([2]; Homo sapiens) [nM] | IC50 ([3]; Homo sapiens) [nM]
COC1C(OC2CCC3(C=O)C4CCC5(C)C(C6=CC(=O)OC6)CCC5(O)C4CCC3(O)C2)OC(C)C(O)C1O (stereo not drawn) [epi-reevesioside F (7), epi-reevesioside F] | 34.1 ± 5.5 | 10.4 ± 0.5 | 996 ± 92.6 |  |  | 
C[C@@H]1C[C@H]2OCO[C@H]2[C@H](O[C@H]2CC[C@]3(C=O)[C@H]4CC[C@]5(C)[C@@H](C6=CC(=O)OC6)CC[C@]5(O)[C@@H]4CC[C@]3(O)C2)O1 [reevesioside A (1), reevesioside A] | 63.2 ± 2.1 | 19.3 ± 0.5 | 368 ± 29.9 |  |  | 
COc1cc2c3c(c4cc(OC)c(OC)cc4c2cc1OC)CN1CCC[C@@H]1C3 [tylophorine, reference compound] |  |  |  | 236 ± 11 | 233 ± 24 | 215 ± 14
reevesioside B [reevesioside B (2)] | 3520 ± 72 | 431 ± 45.1 | 4760 ± 202 |  |  | 
reevesioside C [reevesioside C (3)] | 2040 ± 173 | 208 ± 15.6 | 3740 ± 261 |  |  | 
reevesioside D [reevesioside D (4)] | 36400 ± 2580 | 3900 ± 316 | > 500000 |  |  | 
reevesioside E [reevesioside E (5)] | 11800 ± 2240 | 1770 ± 35.4 | 40500 ± 6430 |  |  | 
reevesioside F [reevesioside F (6)] | 72 ± 8.1 | 20.3 ± 0.4 | 836 ± 33.2 |  |  | 
